# Assay results taken from US20140155384A1, “COMPOUNDS AND METHODS OF TREATING DIABETES” (Medivation Technologies, Inc., priority 2011, published 2014).
# Assays:
# [1] = target: T1, human recombinant adrenergic α2A receptor (Homo sapiens, UniProt P08913); experiment: Radioligand binding, adrenergic α2A receptor ([3H]MK-912); conditions: 0.1 μM compound; Sf9 cells; 1 nM [3H]MK-912; read-out: Percentage inhibition of ligand binding, Adrenergic α2A
# T1 construct: expressed in transfected cells; host or cells: insect Sf9 cells
# T1 sequence (P08913 1-465): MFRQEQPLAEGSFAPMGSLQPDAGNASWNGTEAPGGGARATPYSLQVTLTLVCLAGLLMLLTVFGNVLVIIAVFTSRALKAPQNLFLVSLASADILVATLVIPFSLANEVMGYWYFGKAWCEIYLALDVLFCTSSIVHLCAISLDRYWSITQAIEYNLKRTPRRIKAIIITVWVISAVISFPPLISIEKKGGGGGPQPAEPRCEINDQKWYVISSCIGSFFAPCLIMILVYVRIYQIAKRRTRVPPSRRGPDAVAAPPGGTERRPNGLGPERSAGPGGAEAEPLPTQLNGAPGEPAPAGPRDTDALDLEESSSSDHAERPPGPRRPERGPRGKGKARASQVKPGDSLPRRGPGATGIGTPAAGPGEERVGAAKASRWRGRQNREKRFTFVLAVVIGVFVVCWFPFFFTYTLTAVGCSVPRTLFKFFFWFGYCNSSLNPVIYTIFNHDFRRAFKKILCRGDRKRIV
# Experimental: To evaluate in radioligand binding assays the activity of compounds, human recombinant adrenergic α2A receptor expressed in insect Sf9 cells (Uhlen, S. et al, J. Pharmacol. Exp. Ther. 271:1558, 1994) in a modified Tris-HCl buffer (50 mM Tris-HCl, pH 7.4, 12.5 mM MgCl2, 2 mM EDTA) was used. Compounds were incubated with 1 nM [^3H]MK-912 for 60 min at 25° C. MK912 is (2S-trans)-1,3,4,5′,6,6′,7,12b-octahydro-1′,3′-dimethyl-spiro[2H-benzofuro[2,3-a]quinolizine-2,4′(1′H)-pyrimidin]-2′(3′H)-one hydrochloride Non-specific binding was estimated in the presence of 10 μM WB-4101 (2-(2,6-Dimethoxyphenoxyethyl)aminoethyl-1,4-benzodioxane hydrochloride). Receptor proteins were filtered and washed, the filters were then counted to determine [^3H]MK-912 specifically bound. Compounds were screened at 1 μM or lower, using 1% DMSO as vehicle. Compounds were tested in this biochemical assay and percent inhibition of specific binding was determined. Biochemical assay results are presented as the percent inhibition of specific binding in Table 2.
# [2] = target: T2, rat adrenergic α1B receptor (Rattus norvegicus, UniProt P15823); experiment: Radioligand binding, adrenergic α1B receptor ([3H]Prazosin); conditions: 0.1 μM compound, Wistar rat liver, read-out: Percentage inhibition of ligand binding, Adrenergic α1B
# T2 construct: rat adrenergic α1B receptor obtained from Wistar Rat liver; from tissue; host or cells: Wistar rat liver
# T2 sequence (P15823 1-515): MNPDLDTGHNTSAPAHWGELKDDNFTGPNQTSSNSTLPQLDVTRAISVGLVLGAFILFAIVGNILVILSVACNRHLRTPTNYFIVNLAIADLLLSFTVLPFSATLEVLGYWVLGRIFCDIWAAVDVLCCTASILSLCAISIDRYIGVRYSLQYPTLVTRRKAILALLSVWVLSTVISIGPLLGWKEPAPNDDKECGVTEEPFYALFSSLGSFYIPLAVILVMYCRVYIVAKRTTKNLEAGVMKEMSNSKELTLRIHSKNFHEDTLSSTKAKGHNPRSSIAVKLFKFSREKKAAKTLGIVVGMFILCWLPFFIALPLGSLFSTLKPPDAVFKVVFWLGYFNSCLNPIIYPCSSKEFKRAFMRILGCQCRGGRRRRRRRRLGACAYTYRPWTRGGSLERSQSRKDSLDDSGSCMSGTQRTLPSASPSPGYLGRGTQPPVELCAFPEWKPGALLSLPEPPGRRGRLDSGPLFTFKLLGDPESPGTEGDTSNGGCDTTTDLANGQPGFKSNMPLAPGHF
# Experimental: To evaluate in radioligand binding assays the activity of compounds, rat adrenergic α1B receptor obtained from Wistar Rat liver (Garcia-S' ainz, J. et al, Biochem. Biophys. Res. Commun. 186:760, 1992; Michel, A. et al, Br. J. Pharmacol. 98:883, 1989) in a modified Tris-HCl buffer (50 mM Tris-HCl buffer, pH 7.4, 0.5 mM EDTA) was used. Compounds were incubated with 0.25 nM [^3H]Prazosin for 60 min at […]. Non-specific binding was estimated in the presence of 10 μM phentolamine. Receptor proteins were filtered and washed, the filters were then counted to determine [^3H]Prazosin specifically bound. Compounds were screened at 1 μM or lower, using 1% DMSO as vehicle. Compounds were tested in this biochemical assay and percent inhibition of specific binding was determined. Biochemical assay results are presented as the percent inhibition of specific binding in Table 2.
# [3] = target: T3, human recombinant adrenergic α2B receptor (Homo sapiens, UniProt P18089); experiment: Radioligand binding, adrenergic α2B receptor ([3H]Rauwolscine); conditions: 0.1 μM compound, CHO-K1 cells, read-out: Percentage inhibition of ligand binding, Adrenergic α2B
# T3 construct: expressed in transfected cells; host or cells: CHO-K1
# T3 sequence (P18089 1-450): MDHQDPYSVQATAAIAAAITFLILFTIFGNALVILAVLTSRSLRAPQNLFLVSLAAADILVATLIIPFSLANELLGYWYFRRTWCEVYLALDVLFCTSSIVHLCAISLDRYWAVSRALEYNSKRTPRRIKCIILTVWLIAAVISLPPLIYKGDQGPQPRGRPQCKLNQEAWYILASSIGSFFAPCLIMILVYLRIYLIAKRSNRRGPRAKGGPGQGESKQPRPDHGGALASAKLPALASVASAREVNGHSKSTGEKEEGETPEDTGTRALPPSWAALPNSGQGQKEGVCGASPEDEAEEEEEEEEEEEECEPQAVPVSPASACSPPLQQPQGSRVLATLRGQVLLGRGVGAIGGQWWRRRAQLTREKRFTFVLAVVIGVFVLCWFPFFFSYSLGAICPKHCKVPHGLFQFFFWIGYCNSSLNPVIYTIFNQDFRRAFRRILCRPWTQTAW
# Experimental: To evaluate in radioligand binding assays the activity of compounds, human recombinant adrenergic α2B receptor expressed in Chinese hamster ovary (CHO) K1 cells (Uhlen, S. et al, Eur. J. Pharmacol. 343(1):93, 1998) in a modified Tris-HCl buffer (50 mM Tris-HCl, pH 7.4, 12.5 mM MgCl2, 1 mM EDTA, 0.2% BSA) was used. Compounds were incubated with 2.5 nM [^3H]Rauwolscine for 60 min at 25° C. Non-specific binding was estimated in the presence of 10 μM Prazosin. Receptor proteins were filtered and washed, the filters were then counted to determine [^3H]Rauwolscine specifically bound. Compounds were screened at 1 μM or lower, using 1% DMSO as vehicle. Compounds were tested in this biochemical assay and percent inhibition of specific binding was determined. Biochemical assay results are presented as the percent inhibition of specific binding in Table 2.
# [4] = target: T4, human recombinant adrenergic α1D receptor (Homo sapiens, UniProt P25100); experiment: Radioligand binding, adrenergic α1D receptor ([3H]Prazosin); conditions: 0.1 μM compound; HEK-293 cells; 0.6 nM [3H]Prazosin; read-out: Percentage inhibition of ligand binding, Adrenergic α1D
# T4 construct: expressed in transfected cells; host or cells: HEK-293
# T4 sequence (P25100 1-572): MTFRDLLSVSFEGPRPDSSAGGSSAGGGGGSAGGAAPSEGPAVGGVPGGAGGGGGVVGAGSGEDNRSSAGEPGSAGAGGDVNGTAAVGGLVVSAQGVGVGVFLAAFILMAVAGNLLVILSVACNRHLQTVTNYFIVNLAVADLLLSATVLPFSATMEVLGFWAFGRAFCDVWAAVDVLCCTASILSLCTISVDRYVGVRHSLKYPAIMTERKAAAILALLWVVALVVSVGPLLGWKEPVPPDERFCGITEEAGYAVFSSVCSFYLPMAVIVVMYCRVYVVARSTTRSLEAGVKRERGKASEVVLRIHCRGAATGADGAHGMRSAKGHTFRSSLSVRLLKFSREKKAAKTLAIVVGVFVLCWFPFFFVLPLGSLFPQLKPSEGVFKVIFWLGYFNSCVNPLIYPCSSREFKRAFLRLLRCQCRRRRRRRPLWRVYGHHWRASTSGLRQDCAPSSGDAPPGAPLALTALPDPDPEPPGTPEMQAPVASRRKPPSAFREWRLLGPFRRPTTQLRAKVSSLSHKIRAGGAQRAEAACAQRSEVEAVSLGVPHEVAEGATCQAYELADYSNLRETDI
# Experimental: Compounds were incubated with 0.6 nM [3H]Prazosin for 60 min at 25° C. Non-specific binding was estimated in the presence of 10 μM phentolamine. Receptor proteins were filtered and washed, the filters were then counted to determine [3H]Prazosin specifically bound. Compounds were screened at 1 μM or lower, using 1% DMSO as vehicle. Biochemical assay results are presented as the percent inhibition of specific binding in Table 2.
Compound,inhibition at 0.1 µM [1],inhibition at 0.1 µM [2],inhibition at 0.1 µM [3],inhibition at 0.1 µM [4]
"Cc1ccc2c(c1)c1c(n2-c2cccc(-c3cc4ccccc4s3)c2)CCN(C)C1 [Compound 51, 5-(3-(benzo[b]thiophen-2-yl)phenyl)-2,8-dimethyl-2,3,4,5-tetrahydro-1H-pyrido[4,3-b]indole]",27%,10%,7%,12%
"Cc1ccc2c(c1)c1c(n2-c2cccc(-c3ccc(O)nc3)c2)CCN(C)C1 [Compound 52, 5-(3-(2,8-dimethyl-3,4-dihydro-1H-pyrido[4,3-b]indol-5(2H)-yl)phenyl)pyridin-2-ol]",43%,6%,36%,-3%
"Cc1ccc2c(c1)c1c(n2-c2cccc(-c3ccc4c(ccn4C)c3)c2)CCN(C)C1 [Compound 53, 2,8-dimethyl-5-(3-(1-methyl-1H-indol-5-yl)phenyl)-2,3,4,5-tetrahydro-1H-pyrido[4,3-b]indole]",24%,8%,15%,0%
"Cc1ccc2c(c1)c1c(n2-c2cccc(-c3ccc4[nH]cnc4c3)c2)CCN(C)C1 [Compound 54, 5-(3-(1H-benzo[d]imidazol-5-yl)phenyl)-2,8-dimethyl-2,3,4,5-tetrahydro-1H-pyrido[4,3-b]indole]",23%,8%,3%,-3%
CC(=O)Nc1ccc(-c2cscc2-n2c3c(c4cc(C)ccc42)CN(C)CC3)cn1 [Compound 56],4%,36%,90%,65%
"Cc1cc(C)c2c(c1)c1c(n2-c2cccc(-c3ccncc3)c2)CCN(C)C1 [Compound 57, 2,6,8-trimethyl-5-(3-(pyridin-4-yl)phenyl)-2,3,4,5-tetrahydro-1H-pyrido[4,3-b]indole]",7%,6%,11%,-1%
"Cc1ccc2c(c1)c1c(n2-c2cccc3ccncc23)CCN(C)C1 [Compound 58, 5-(isoquinolin-8-yl)-2,8-dimethyl-2,3,4,5-tetrahydro-1H-pyrido[4,3-b]indole]",22%,22%,39%,24%
"Cc1ccc2c(c1)c1c(n2-c2ccccc2-c2ccc(C)nc2)CCN(C)C1 [Compound 59, 2,8-dimethyl-5-(2-(6-methylpyridin-3-yl)phenyl)-2,3,4,5-tetrahydro-1H-pyrido[4,3-b]indole]",77%,47%,91%,65%
"Cc1ccc2c(c1)c1c(n2-c2cccc(-c3ccc(C)nc3)c2)CCN(C)C1 [Compound 60, 2,8-dimethyl-5-(3-(6-methylpyridin-3-yl)phenyl)-2,3,4,5-tetrahydro-1H-pyrido[4,3-b]indole]",62%,4%,14%,9%
"Cc1ccc2c(c1)c1c(n2-c2cccc(-c3ccc(F)cc3)c2)CCN(C)C1 [Compound No. 61, 5-(4′-fluorophenyl-3-yl)-2,8-dimethyl-2,3,4,5-tetrahydro-1H-pyrido[4,3-b]indole]",23%,11%,7%,5%
Cc1ccc2c(c1)c1c(n2-c2cscc2-c2c(C)noc2C)CCN(C)C1 [Compound No. 62],67%,32%,19%,18%
"Cc1csc(-c2cccc(-n3c4c(c5cc(C)ccc53)CN(C)CC4)c2)c1 [Compound No. 63, 2,8-dimethyl-5-(3-(4-methylthiophen-2-yl)phenyl)-2,3,4,5-tetrahydro-1H-pyrido[4,3-b]indole]",30%,2%,11%,5%
